The test system of data set [1] is HepG2 cells. The conditions noted are these: 10 μM; cell type not stated; cited from earlier work.
A further data set deals with HCV. The conditions noted are these: ribavirin alone; cited from earlier work.
Data set [2] has as its system HepG2 human hepatoma cell line. Description: Cytotoxicity (cell proliferation) assay, HepG2. The conditions noted are these: rapid cell division; listed as RBV.
In data set [3] the test system is HepG2 cells. Description: Incorporation of drug into cellular RNA and DNA. The following applies: for Incorporated drug amount, DNA / Incorporated drug amount, RNA: 10 μM [3H] drug, 30 hours.
Another data set addresses human DNA polymerase α (Homo sapiens, UniProt P09884). Description: Inhibition of human DNA polymerase α. It is filed as biochemical.
The target in a further data set is human DNA polymerase β (Homo sapiens, UniProt P06746). Description: Inhibition of human DNA polymerase β. It is filed as biochemical.
In another data set the target is T1, human DNA polymerase γ (Homo sapiens, UniProt P54098).
T1 sequence (P54098 1-1239): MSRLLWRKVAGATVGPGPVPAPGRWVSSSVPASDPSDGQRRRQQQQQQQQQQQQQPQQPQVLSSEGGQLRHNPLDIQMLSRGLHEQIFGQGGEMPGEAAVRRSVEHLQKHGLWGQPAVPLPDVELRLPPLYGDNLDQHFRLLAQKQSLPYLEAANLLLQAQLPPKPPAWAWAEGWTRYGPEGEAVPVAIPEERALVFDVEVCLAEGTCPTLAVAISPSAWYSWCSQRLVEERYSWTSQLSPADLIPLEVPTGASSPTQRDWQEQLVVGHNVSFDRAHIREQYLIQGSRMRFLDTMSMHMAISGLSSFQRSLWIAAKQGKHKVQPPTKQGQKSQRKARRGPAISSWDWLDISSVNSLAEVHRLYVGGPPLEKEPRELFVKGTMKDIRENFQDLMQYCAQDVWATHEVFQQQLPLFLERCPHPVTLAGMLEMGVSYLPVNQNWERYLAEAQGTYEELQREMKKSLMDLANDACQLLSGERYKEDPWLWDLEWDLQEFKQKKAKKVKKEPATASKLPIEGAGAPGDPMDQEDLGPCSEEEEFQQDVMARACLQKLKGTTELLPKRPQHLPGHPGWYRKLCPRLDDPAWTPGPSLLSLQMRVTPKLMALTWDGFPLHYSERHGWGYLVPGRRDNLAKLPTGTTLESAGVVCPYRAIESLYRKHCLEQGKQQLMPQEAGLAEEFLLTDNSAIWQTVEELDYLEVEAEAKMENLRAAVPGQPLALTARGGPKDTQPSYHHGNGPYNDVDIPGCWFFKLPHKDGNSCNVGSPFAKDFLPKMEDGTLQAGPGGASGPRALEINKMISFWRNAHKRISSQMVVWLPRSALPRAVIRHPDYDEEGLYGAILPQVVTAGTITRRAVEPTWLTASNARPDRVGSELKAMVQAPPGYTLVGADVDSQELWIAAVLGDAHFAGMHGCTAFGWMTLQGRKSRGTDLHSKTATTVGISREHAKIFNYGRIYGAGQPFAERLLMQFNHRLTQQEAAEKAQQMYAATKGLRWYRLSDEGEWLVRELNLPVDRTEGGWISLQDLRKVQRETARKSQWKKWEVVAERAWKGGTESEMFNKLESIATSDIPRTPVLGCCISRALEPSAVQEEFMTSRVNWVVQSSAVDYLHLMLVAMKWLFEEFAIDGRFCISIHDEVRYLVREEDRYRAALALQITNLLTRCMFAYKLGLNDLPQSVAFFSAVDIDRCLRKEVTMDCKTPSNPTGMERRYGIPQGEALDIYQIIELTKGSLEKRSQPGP
Description: biochemical.

In data set [4] the test system is BVDV. Type of data set: cell-based, bovine viral diarrhea virus.
For another data set, the system named is YFV. It is filed as cell-based, yellow fever virus. The following applies: Tables 30b, 30k-30o.
Another data set relates to DENV 2. As to the kind of experiment: microbe, parasite or virus in culture. Type of data set: cell-based, dengue virus. The following applies: read-out: DENV 2.
The next data set has as its system WNV. As to the kind of experiment: microbe, parasite or virus in culture. It is filed as cell-based, West Nile virus. The conditions noted are these: read-out: WNV.
For another data set, the system named is CVB-2. Description: organism not typed. Type of data set: cell-based, Coxsackie B-2 virus. The conditions noted are these: read-out: CVB-2.
The next data set deals with Sb-1. As to the kind of experiment: organism not typed. It is filed as cell-based, Sabin type 1 poliomyelitis virus. The conditions noted are these: read-out: Sb-1.
A further data set relates to REO-1. Description: microbe, parasite or virus in culture. Type of data set: cell-based, double-stranded RNA Reovirus. The following applies: read-out: REO.
In data set [5] the test system is BVDV. As to the kind of experiment: Exploratory cell culture studies of mUrd, antiviral efficacy against BVDV. It is filed as cell-based, bovine viral diarrhea virus. The following applies: less potent than mCyd.
Data set [6] relates to wide spectrum of other viruses. Description: Exploratory cell culture studies of mUrd, other viruses. Type of data set: cell-based.
Data set [7] relates to variety of cytotoxicity tests. Description: Exploratory cytotoxicity tests of mUrd (bone marrow, mitochondrial function, incorporation into nucleic acid). Type of data set: cell-based. The following applies: high concentrations.
Data set [8] deals with MT-4 human T-lymphocyte cells.
Data set [9] in a line: Exposure of chimpanzees to mCyd, serum HPLC. The conditions noted are these: after val-mCyd; lower limit of quantification 0.4 μM (100 ng/mL).
Data set [10] concerns HepG2 cells. Description: Mitochondrial DNA content. It is filed as cell-based, human. The following applies: for mtDNA/nuclear DNA (% of Control): 1 μM. The method, then:
To assess the potential of mCyd to produce mitochondrial toxicity, several in vitro studies were conducted using the human hepatoma cell lines HepG2 or Huh7.
The significance of this finding is unclear, particularly since mCyd is unlikely to attain a plasma concentration of 50 μM in the clinic. For comparison, lactic acid production increases by 100% over control cells in cells treated with 10 μM FIAU (Cui L, Yoon, et al. J. Clin. Invest. 1995; 95:555-563).

Data set [11] has as its system HepG2 cells. Description: Transmission electron microscopy of mitochondrial ultrastructure. The following applies: 10 μM, 14 days.
Data set [12] concerns BVDV. It is filed as cell-based, bovine viral diarrhea virus. This is another data set of the same source.
Data set [13] relates to BVDV (strain I-N-dIns), noncytopathic. It is filed as cell-based, bovine viral diarrhea virus. The following applies: titrated from 0 to 2,000 IU per ml.
In data set [14] the test system is BVDV New York-1 (NY-1) strain. Description: MDBK cells persistently infected with BVDV strain New York-1, virus titer. Type of data set: cell-based, bovine viral diarrhea virus. The conditions noted are these: 200 IU/ml alone.
A further data set deals with S405T mutant BVDV. Type of data set: cell-based, bovine viral diarrhea virus. The following applies: more sensitive.

Where “and” joins values, the source holds several entries; their conditions need not be identical. Equal values may be shown once. Read-outs that look alike come from different tables or passages of the source. Marks after values point to notes of the source that are not given here. Starred links: 1 amine or outer side, 2 acyl side, 3 side chain; linkers in the order of their positions; H or OH if unused. Positions of bridges follow the written chain, without caps; N, C: chain ends. Non-standard residues stand in square brackets, D forms with d. Residues, ends and D or L forms follow the SMILES beside them. Chains are numbered I, II in the order given. Actinocin(9to1) = Cc1c2oc3c(C)ccc(C(=O)[*:1])c3nc-2c(C(=O)[*:2])c(N)c1=O; NMeV = CN[C@H](C(=O)O)C(C)C; Sar = CNCC(=O)O

For orientation: CC50 means the concentration that lowers cell viability or growth by half. For orientation: IC50 means the concentration needed to halve the response being measured. Lower therefore signals inhibition by little substance. A word on the melting point: it is the temperature, or range, at which the solid turns liquid.

Sequence of human DNA polymerase α (P09884 whole entry): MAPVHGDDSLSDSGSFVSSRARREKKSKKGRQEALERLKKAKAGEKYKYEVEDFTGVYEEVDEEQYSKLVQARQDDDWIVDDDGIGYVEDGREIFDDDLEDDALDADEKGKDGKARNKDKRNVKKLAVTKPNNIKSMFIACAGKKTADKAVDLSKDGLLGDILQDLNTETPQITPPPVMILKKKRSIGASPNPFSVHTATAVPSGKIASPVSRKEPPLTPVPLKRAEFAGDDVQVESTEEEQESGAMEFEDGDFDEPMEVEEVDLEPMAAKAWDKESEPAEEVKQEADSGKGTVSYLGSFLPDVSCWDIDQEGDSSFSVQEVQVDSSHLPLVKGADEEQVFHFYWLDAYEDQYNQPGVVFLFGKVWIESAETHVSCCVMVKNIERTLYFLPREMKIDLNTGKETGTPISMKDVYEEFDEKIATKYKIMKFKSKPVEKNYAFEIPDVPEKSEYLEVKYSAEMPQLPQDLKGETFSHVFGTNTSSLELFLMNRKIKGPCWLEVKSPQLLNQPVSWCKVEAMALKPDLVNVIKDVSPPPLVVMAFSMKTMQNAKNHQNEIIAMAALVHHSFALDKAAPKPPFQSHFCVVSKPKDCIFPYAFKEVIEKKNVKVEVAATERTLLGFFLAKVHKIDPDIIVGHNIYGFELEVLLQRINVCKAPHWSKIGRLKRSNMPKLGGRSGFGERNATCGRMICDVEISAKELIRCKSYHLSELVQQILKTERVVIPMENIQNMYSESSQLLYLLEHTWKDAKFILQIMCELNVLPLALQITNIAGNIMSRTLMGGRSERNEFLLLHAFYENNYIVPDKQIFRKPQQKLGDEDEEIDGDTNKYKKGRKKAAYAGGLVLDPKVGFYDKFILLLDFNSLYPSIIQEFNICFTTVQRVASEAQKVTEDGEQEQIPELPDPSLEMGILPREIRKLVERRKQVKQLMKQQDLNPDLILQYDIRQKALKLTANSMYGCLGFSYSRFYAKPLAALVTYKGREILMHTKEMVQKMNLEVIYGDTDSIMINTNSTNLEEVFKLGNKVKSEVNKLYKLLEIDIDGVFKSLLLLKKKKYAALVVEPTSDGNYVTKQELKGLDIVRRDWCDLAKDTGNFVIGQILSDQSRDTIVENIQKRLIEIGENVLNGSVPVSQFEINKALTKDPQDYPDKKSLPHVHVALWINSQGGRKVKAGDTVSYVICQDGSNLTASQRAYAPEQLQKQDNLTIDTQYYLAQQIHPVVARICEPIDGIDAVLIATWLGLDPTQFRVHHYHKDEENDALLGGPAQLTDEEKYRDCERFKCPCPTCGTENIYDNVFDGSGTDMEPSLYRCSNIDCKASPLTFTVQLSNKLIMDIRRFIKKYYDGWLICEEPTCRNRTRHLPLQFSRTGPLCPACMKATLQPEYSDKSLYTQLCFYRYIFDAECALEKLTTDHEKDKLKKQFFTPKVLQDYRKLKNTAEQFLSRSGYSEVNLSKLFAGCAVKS

As to `O=c1[nH]c(=O)n([C@@H]2O[C@H](CO)[C@@H](O)[C@@H]2F)cc1I` [FIAU, 1,-2′-deoxy-2′-fluoro-1-β-D-arabinofuranosyl-5-iodo-uracil], in the data set with HepG2 cells [1], the “increase in lactic acid production over control cells” value is on record as 100%.

Consider `NC(=O)c1ncn([C@@H]2O[C@H](CO)[C@@H](O)[C@H]2O)n1` [ribavirin, 1-β-D-ribofuranosyl-1-1,2,4-triazole-3-carboxamide], for which, in the data set with HCV, the “effect on serum levels of HCV-RNA” value is “does not lower serum levels of HCV-RNA” and the “patients with serum amino transferase levels reduced to normal” value is 40%. For the same molecule, half-maximal cytotoxicity in data set [2] (CC50) was put at 36 µM. Moreover, in the data set on HepG2 cells [3], the “Incorporated drug amount, DNA” value was 0.0120^b pmole/μg DNA and the “Incorporated drug amount, RNA” value is listed as 0.0132^c pmole/μg RNA. The “incorporation into both DNA and RNA, level relative to mCyd” value with HepG2 cells [3] (higher than mCyd) is reported as 10 fold.

In the case of `Cc1c2oc3c(C)ccc(C(=O)N[C@@H]4C(=O)N[C@H](C(C)C)C(=O)N5CCC[C@H]5C(=O)N(C)CC(=O)N(C)[C@@H](C(C)C)C(=O)O[C@@H]4C)c3nc-2c(C(=O)N[C@@H]2C(=O)N[C@H](C(C)C)C(=O)N3CCC[C@H]3C(=O)N(C)CC(=O)N(C)[C@@H](C(C)C)C(=O)O[C@@H]2C)c(N)c1=O` [Act. D, actinomycin D] (I: T[dV]P[Sar][NMeV] / II: T[dV]P[Sar][NMeV]; ester I:1-I:C, II:1-II:C; linker I:N-II:N via Actinocin(9to1)), the IC50 on human DNA polymerase α turned out to be 5.8 ± 3.1 µM; at human DNA polymerase β, 7.9 ± 3 µM; at human DNA polymerase γ it was 15.5 ± 4 µM.

Turning to `C[C@]1(CO)O[C@@H](n2ccc(=S)[nH]c2=O)[C@H](O)[C@@H]1O`, the melting point was 65 to 70 °C (dec.).

Turning to `C[C@@]1(O)[C@H](O)[C@@H](CO)O[C@H]1n1ccc(=O)[nH]c1=O` [Compound N, β-D-2′-C-methyl-uracil], the EC50 in the data set on BVDV [4] was 18 µM; with YFV, 100 µM; in the data set with DENV 2, at least 100 µM; in the data set on WNV it was 80 µM; in the data set on CVB-2, above 100 µM; in the data set with Sb-1, 55 µM. Further, the EC50 in the data set on REO-1 is above 100 µM. The “potency against BVDV relative to mCyd” value in the data set with BVDV [5] is recorded as “about 10 fold”. Also, the “antiviral activity against a wide spectrum of other viruses” value in [6] is recorded as “essentially no antiviral activity”. Further, the “result in cytotoxicity tests” value in data set [7] is “negative”. The same molecule came in with a CC50 in data set [8] above 100 µM. In addition, the “mUrd in sera samples” value in data set [9] is recorded as “No mUrd was detected”.

As for `Nc1ccn([C@H]2CC[C@@H](CO)O2)c(=O)n1` [ddC, zalcitabine, reference compound], in the data set with HepG2 cells [10] (6 day treatment), the “mtDNA/nuclear DNA (% of Control)” value is 44.3 ± 9.3 % of Control. Further, the “mtDNA/nuclear DNA (% of Control)” value with HepG2 cells [10] (14 day treatment) was 19.6 ± 8.2 % of Control. Besides, the “reduction of mitochondrial DNA content” value in the data set with HepG2 cells [10] (6 days) was determined as 56%. For the same molecule, the “reduction of mitochondrial DNA content” value in the data set on HepG2 cells [10] (14 days) is reported as 80%. Besides, in the data set with HepG2 cells [3], the “Incorporated drug amount, DNA” value is 0.0055 pmole/μg DNA and 0.0055^b pmole/μg DNA; the “Incorporated drug amount, RNA” value is 0.0013 pmole/μg RNA and 0.0013^b pmole/μg RNA. In the data set with HepG2 cells [11], the “Electron Microscopy, Lipid Droplet Form.” value was “Positive” and the “Electron Microscopy, Mito. Morphol.” value is “Loss of Cristae”.

As to `Nc1ccn([C@H]2CC[C@@H](COP(=O)(O)OP(=O)(O)OP(=O)(O)O)O2)c(=O)n1` [ddC-TP], the IC50 was determined as 78 ± 23.4 µM at human DNA polymerase α, 4.8 ± 1 µM on human DNA polymerase β and 2.7 ± 1 µM against human DNA polymerase γ.

As to `Cc1cn([C@@H]2O[C@](C)(CO)[C@@H](O)[C@H]2O)c(=O)[nH]c1=O`, the melting point is 258 to 260 °C (dec.).

Consider `C[C@@]1(O)[C@H](O)[C@@H](COP(=O)(O)OP(=O)(O)OP(=O)(O)O)O[C@H]1n1ccc(N)nc1=O` [mCyd-TP, 2′-C-methyl-cytidine-5′-triphosphate], for which the values for the concentration for half-maximal inhibition (IC50) at human DNA polymerase β and against human DNA polymerase γ were at least 883 µM and at least 929 µM, respectively.

On to `C[C@]1(CO)O[C@@H](n2cnc3c(N)ncnc32)[C@H](O)[C@@H]1O`, for which the melting point is 96 to 97 °C (dec.).

As to interferon alpha 2b, the EC50 with BVDV [12] amounted to 2.6 IU per ml. In the data set with BVDV [12] (even at 1000 IU per ml), this molecule gave a viral reduction of at most 2 logs. In data set [13], the “reduction in viral titer” value was 0.1 log. Moreover, the “reduction in virus titer” value in [14] was “approximately 0.1 log10”. Further, the “sensitivity of the mutant relative to wild-type” value in the data set on S405T mutant BVDV was around 40 fold.

Source of the values: US7625875B2 (priority 2002, dated 2009).
